The source made the active and inactive calls. The rule behind the calls is not given here.

What all share (assay type): functional, cell-based
The subject of experiment [1] is MDA-MB-231. The experiment in a line: Cytotoxicity against human MDA-MB-231 cells at 10 uM after 72 hrs by CellTiter 96 AQueous One Solution Cell Proliferation Assay.
For experiment [2], the system named is OVCAR-3. The experiment in a line: Cytotoxicity against human OVCAR3 cells at 10 uM after 72 hrs by CellTiter 96 AQueous One Solution Cell Proliferation Assay.
The test system of experiment [3] is MDA-MB-435. The experiment in a line: Cytotoxicity against human MDA-MB-435 cells at 10 uM after 72 hrs by CellTiter 96 AQueous One Solution Cell Proliferation Assay.
Experiment [4] concerns MDA-MB-231. As to the kind of experiment: Cytotoxicity against human MDA-MB-231 cells after 72 hrs by CellTiter 96 AQueous One Solution Cell Proliferation Assay. The settings on record: MDA-MB-231, 72 h.
Experiment [5] deals with OVCAR-3. The experiment in a line: Cytotoxicity against human OVCAR3 cells after 72 hrs by CellTiter 96 AQueous One Solution Cell Proliferation Assay. The settings on record: OVCAR-3, 72 h.
For experiment [6], the system named is MDA-MB-435. The experiment in a line: Cytotoxicity against human MDA-MB-435 cells after 72 hrs by CellTiter 96 AQueous One Solution Cell Proliferation Assay. As to conditions: MDA-MB-435, 72 h.

As to `CCCCCC[C@H](C)[C@@H](CCCCCCCCC(C)/C=C\C=C(/C)C(=O)N[C@@H](C)CO)OC(N)=O` (some centres undefined), the result in experiment [1], in experiment [2] and in experiment [3] was inactive.
For `CC(=O)O[C@H]1C(=O)[C@@]2(C)[C@H]([C@H](OC(=O)c3ccccc3)[C@]3(O)C[C@H](OC(=O)[C@H](O)[C@@H](NC(=O)c4ccccc4)c4ccccc4)C(C)=C1C3(C)C)[C@]1(OC(C)=O)CO[C@@H]1C[C@@H]2O` [PACLITAXEL], the IC50 (as a rule, the concentration at which inhibition is half-maximal) in experiment [4] came to 2.6 nM; in experiment [5], 7.5 nM; in experiment [6] it was 3.1 nM.
For the compound `C=CCCCC[C@H](C)[C@@H](CCCCCCCCC(C)/C=C\C=C(/C)C(=O)N[C@@H](C)CO)OC(N)=O` (some centres undefined), the result in experiment [1], in experiment [2] and in experiment [3] was inactive.

The values are drawn from ChEMBL document CHEMBL4196193, “Calothrixamides A and B from the Cultured Cyanobacterium Calothrix sp. UIC 10520” (J Nat Prod, 2018).
